As a reminder, the IC50 is the point on the concentration scale where inhibition reaches its midpoint.

29 compounds from patent US12065436B2, “Cardiac sarcomere inhibitors” (Cytokinetics, Inc., priority 2018, dated 2024) can be followed below.

The target in the experiment is bovine cardiac myofibrils (full-length cardiac myosin ATPase in the native sarcomere) (Bos taurus (Bovine), UniProt Q9BE39). The experiment can be described thus: Skinned bovine cardiac myofibril ATPase assay (PK/LDH-coupled). Type of experiment: biochemical. As to conditions: Ca2+ activating to 75% of maximal rate; for CDMF75 IC15: concentration giving 15% inhibition; for IC50: read-out: CDMF75 IC50. The procedure, abridged:
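Triton-skinned bovine left-ventricle myofibrils (1 mg/mL) in PM 12 buffer (12 mM PIPES, 2 mM MgCl2, pH 6.8) with 50 μM ATP, 0.6 mM EGTA and CaCl2 set for 50% or 75% activation. Steady-state ATPase inhibition followed by PK/LDH-coupled NADH oxidation at 340 nm.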

Bounds are passed on as bounds.

Sequence of bovine cardiac myofibrils (full-length cardiac myosin ATPase in the native sarcomere) (Q9BE39 whole entry): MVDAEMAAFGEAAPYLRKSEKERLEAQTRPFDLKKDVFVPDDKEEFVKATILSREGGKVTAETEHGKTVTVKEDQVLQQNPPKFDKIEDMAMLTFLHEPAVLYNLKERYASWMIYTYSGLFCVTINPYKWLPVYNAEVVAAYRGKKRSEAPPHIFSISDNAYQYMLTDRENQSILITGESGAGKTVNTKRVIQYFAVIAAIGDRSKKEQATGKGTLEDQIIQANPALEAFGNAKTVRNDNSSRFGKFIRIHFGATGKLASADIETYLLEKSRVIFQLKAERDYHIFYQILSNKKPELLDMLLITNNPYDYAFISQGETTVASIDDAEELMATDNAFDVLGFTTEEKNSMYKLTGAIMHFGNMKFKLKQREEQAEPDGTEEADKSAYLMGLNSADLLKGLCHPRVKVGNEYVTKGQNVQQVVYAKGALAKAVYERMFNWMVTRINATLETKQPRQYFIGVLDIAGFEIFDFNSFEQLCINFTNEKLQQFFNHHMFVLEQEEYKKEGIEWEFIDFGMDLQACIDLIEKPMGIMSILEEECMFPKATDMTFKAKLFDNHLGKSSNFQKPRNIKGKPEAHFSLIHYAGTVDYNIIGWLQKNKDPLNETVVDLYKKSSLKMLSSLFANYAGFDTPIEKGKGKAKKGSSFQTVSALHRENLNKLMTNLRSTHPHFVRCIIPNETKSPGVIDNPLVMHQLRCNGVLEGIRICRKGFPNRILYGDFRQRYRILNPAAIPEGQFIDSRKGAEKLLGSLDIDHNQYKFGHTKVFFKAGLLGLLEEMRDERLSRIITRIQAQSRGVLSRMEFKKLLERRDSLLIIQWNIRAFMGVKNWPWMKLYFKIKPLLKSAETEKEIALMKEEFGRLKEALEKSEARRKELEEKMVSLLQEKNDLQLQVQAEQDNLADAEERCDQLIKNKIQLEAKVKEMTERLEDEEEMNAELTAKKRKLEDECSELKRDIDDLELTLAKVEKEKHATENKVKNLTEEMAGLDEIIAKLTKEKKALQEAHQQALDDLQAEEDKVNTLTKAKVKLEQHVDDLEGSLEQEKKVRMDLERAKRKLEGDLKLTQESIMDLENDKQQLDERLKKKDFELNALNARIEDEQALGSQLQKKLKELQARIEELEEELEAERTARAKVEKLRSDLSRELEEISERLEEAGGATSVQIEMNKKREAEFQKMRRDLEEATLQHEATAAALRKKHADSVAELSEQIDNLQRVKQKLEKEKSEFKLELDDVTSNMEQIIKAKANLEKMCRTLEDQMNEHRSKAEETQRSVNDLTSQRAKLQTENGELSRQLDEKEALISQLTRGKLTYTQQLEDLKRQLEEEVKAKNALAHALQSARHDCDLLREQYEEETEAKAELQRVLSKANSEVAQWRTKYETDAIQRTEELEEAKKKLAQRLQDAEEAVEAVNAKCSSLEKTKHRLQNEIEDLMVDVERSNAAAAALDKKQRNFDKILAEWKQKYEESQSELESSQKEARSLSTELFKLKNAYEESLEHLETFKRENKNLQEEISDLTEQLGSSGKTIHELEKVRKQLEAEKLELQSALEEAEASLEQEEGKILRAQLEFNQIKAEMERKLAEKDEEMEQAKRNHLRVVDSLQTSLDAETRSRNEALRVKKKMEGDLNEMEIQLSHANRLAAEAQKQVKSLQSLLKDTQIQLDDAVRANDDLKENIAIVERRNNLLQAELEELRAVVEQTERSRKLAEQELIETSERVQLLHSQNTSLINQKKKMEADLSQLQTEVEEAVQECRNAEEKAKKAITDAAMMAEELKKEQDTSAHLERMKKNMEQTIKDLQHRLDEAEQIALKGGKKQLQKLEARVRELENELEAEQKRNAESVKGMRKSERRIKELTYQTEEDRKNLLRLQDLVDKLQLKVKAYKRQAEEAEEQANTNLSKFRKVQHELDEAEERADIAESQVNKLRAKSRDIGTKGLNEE
Sequence of bovine cardiac myofibrils (full-length cardiac myosin ATPase in the native sarcomere) (P85100 whole entry partner): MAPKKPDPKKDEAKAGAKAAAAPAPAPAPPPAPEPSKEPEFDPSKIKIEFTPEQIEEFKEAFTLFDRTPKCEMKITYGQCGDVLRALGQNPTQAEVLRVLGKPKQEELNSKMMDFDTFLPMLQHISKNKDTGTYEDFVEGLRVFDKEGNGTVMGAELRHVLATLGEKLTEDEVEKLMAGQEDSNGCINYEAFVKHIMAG
Sequence of bovine cardiac myofibrils (full-length cardiac myosin ATPase in the native sarcomere) (Q3SZE5 whole entry partner): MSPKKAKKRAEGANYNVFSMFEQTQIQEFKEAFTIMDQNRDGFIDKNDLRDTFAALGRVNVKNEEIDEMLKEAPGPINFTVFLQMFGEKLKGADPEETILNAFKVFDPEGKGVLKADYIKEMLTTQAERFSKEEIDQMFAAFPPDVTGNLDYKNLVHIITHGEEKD

Regarding `Cc1ncoc1C(=O)N[C@@H]1COc2cc(-c3noc(C4CC4)n3)ccc21` [Compound 456, (S)-N-(6-(5-cyclopropyl-1,2,4-oxadiazol-3-yl)-2,3-dihydrobenzofuran-3-yl)-4-methyloxazole-5-carboxamide], the “CDMF75 IC15” value was 0.3 µM and the IC50 was 1.1 µM.
Taken in the same sequence, the figures for `COCCn1cc(C(=O)N[C@@H]2CCc3cc(-c4noc(C5CCC5)n4)ccc32)cn1` [Compound 513, (R)-N-(5-(5-cyclobutyl-1,2,4-oxadiazol-3-yl)-2,3-dihydro-1H-inden-1-yl)-1-(2-methoxyethyl)-1H-pyrazole-4-carboxamide] were 2.2 µM and 10.9 µM.
Turning to `CCc1nc(-c2ccc3c(c2)CC[C@H]3NC(=O)c2cnn(CC(O)CO)c2)no1` (stereo partly drawn) [Compound 553, N-{(1R)-5-(5-ethyl(1,2,4-oxadiazol-3-yl))indanyl][1-(2,3-dihydroxypropyl)pyrazol-4-yl]carboxamide], the “CDMF75 IC15” value was 1.2 µM and the IC50 was determined as 5.1 µM.
In the case of `CC(C)OC(=O)N[C@@H]1CCc2cc(-c3noc(C(F)F)n3)ccc21` [Compound 279, isopropyl (R)-(5-(5-(difluoromethyl)-1,2,4-oxadiazol-3-yl)-2,3-dihydro-1H-inden-1-yl)carbamate], the “CDMF75 IC15” value amounted to 22.4 µM and the IC50 is > 39.2 µM.
Taken in the same sequence, the figures for `CCc1nc(-c2ccc3c(c2)CC[C@H]3NC(=O)c2cnco2)no1` [Compound 584, (R)-N-(5-(5-ethyl-1,2,4-oxadiazol-3-yl)-2,3-dihydro-1H-inden-1-yl)oxazole-5-carboxamide] were 0.3 µM and 1.2 µM.
`CCc1nc(-c2ccc3c(c2)CC[C@H]3NC(=O)c2cc(C)on2)no1` [Compound 569, (R)-N-(5-(5-ethyl-1,2,4-oxadiazol-3-yl)-2,3-dihydro-1H-inden-1-yl)-5-methylisoxazole-3-carboxamide]: the “CDMF75 IC15” value was found to be 0.7 µM and the IC50 is 2.8 µM.
Taken in the same sequence, the figures for `Cn1nnc(C(=O)N[C@@H]2CCc3cc(-c4nc(C5CC5)no4)ccc32)n1` [Compound 260, (R)-N-(5-(3-cyclopropyl-1,2,4-oxadiazol-5-yl)-2,3-dihydro-1H-inden-1-yl)-2-methyl-2H-tetrazole-5-carboxamide] were 0.4 µM and 1.4 µM.
As to `CCc1nc(-c2ccc3c(c2)CC[C@H]3NC(=O)c2ccn(C[C@@H](C)O)c(=O)c2)no1` [Compound 560, N-((R)-5-(5-ethyl-1,2,4-oxadiazol-3-yl)-2,3-dihydro-1H-inden-1-yl)-1-((R)-2-hydroxypropyl)-2-oxo-1,2-dihydropyridine-4-carboxamide], the “CDMF75 IC15” value amounted to 1.3 µM and the IC50 came out at 4.7 µM.
Take `Cc1nc(-c2ccc3c(c2)CCC3NC(=O)Nc2ccccn2)no1` (stereo not shown) [Compound 109, 1-(5-(5-methyl-1,2,4-oxadiazol-3-yl)-2,3-dihydro-1H-inden-1-yl)-3-(pyridin-2-yl)urea]: the “CDMF75 IC15” value was 1.9 µM and the IC50 came to 7.1 µM.
Regarding `O=C(N[C@@H]1CCc2cc(-c3noc(C4CC4)n3)ccc21)C(F)F` [Compound 439, (R)-N-(5-(5-cyclopropyl-1,2,4-oxadiazol-3-yl)-2,3-dihydro-1H-inden-1-yl)-2,2-difluoroacetamide], the “CDMF75 IC15” value worked out at 1.1 µM and the IC50 came out at 4.8 µM.
Taken in the same sequence, the figures for `Cc1noc(-c2ccc3c(c2)CC[C@H]3NC(=O)c2nnc(C)o2)n1` [Compound 703, (R)-5-methyl-N-(5-(3-methyl-1,2,4-oxadiazol-5-yl)-2,3-dihydro-1H-inden-1-yl)-1,3,4-oxadiazole-2-carboxamide] were 1.7 µM and 6.2 µM.
Taken in the same sequence, the figures for `Cc1ncoc1C(=O)N[C@@H]1COc2cc(-c3noc(C(F)F)n3)ccc21` [Compound 453, (S)-N-(6-(5-(difluoromethyl)-1,2,4-oxadiazol-3-yl)-2,3-dihydrobenzofuran-3-yl)-4-methyloxazole-5-carboxamide] were 0.2 µM and 0.7 µM.
`Cc1nc(-c2ccc3c(c2)CCC3NC(=O)c2ncn(C)n2)no1` (stereo not shown) [Compound 119, 1-methyl-N-(5-(5-methyl-1,2,4-oxadiazol-3-yl)-2,3-dihydro-1H-inden-1-yl)-1H-1,2,4-triazole-3-carboxamide]: the “CDMF75 IC15” value came out at 39.2 µM and the IC50 is > 39.2 µM.
Taken in the same sequence, the figures for `Cc1nc(-c2ccc3c(c2)CCC3NC(=O)c2ccnc(O)c2)no1` (stereo not shown) [Compound 43, 2-hydroxy-N-(5-(5-methyl-1,2,4-oxadiazol-3-yl)-2,3-dihydro-1H-inden-1-yl)isonicotinamide] were 4.3 µM and 14.1 µM.
For the compound `Cc1cc(C(=O)N[C@@H]2CCc3cc(-c4noc(C(F)F)n4)ccc32)ncn1` [Compound 683, (R)-N-(5-(5-(difluoromethyl)-1,2,4-oxadiazol-3-yl)-2,3-dihydro-1H-inden-1-yl)-6-methylpyrimidine-4-carboxamide], the “CDMF75 IC15” value is 1.1 µM and the IC50 came out at 4.6 µM.
For `COCc1nc(-c2ccc3c(c2)CC[C@H]3NC(=O)C(F)F)no1` [Compound 437, (R)-2,2-difluoro-N-(5-(5-(methoxymethyl)-1,2,4-oxadiazol-3-yl)-2,3-dihydro-1H-inden-1-yl)acetamide], the “CDMF75 IC15” value came to 8.8 µM and the IC50 amounted to 34.4 µM.
`COCCCn1cc(C(=O)N[C@@H]2CCc3cc(-c4noc(C5CC5)n4)ccc32)cn1` [Compound 600, (R)-N-(5-(5-cyclopropyl-1,2,4-oxadiazol-3-yl)-2,3-dihydro-1H-inden-1-yl)-1-(3-methoxypropyl)-1H-pyrazole-4-carboxamide]: the “CDMF75 IC15” value is 3.5 µM and the IC50 came to 16.5 µM.
As to `CC(=O)N[C@@H]1CCc2cc(-c3noc(C(C)C)n3)ccc21` [Compound 395, (R)-N-(5-(5-isopropyl-1,2,4-oxadiazol-3-yl)-2,3-dihydro-1H-inden-1-yl)acetamide], the “CDMF75 IC15” value stood at 3.1 µM and the IC50 worked out at 13.5 µM.
With `CCc1nc(-c2ccc3c(c2)CC[C@H]3NC(=O)c2cn(C)nc2C)no1` [Compound 563, (R)-N-(5-(5-ethyl-1,2,4-oxadiazol-3-yl)-2,3-dihydro-1H-inden-1-yl)-1,3-dimethyl-1H-pyrazole-4-carboxamide], the “CDMF75 IC15” value was 0.4 µM and the IC50 is 1.2 µM.
Taken in the same sequence, the figures for `COc1cc(C(=O)N[C@@H]2CCc3cc(-c4noc(C(F)F)n4)ccc32)ccn1` [Compound 684, (R)-N-(5-(5-(difluoromethyl)-1,2,4-oxadiazol-3-yl)-2,3-dihydro-1H-inden-1-yl)-2-methoxyisonicotinamide] were 1.1 µM and 5 µM.
Taken in the same sequence, the figures for `COCCn1cc(C(=O)N[C@@H]2CCc3cc(-c4noc(C(C)C)n4)ccc32)cn1` [Compound 511, (R)-N-(5-(5-isopropyl-1,2,4-oxadiazol-3-yl)-2,3-dihydro-1H-inden-1-yl)-1-(2-methoxyethyl)-1H-pyrazole-4-carboxamide] were 3.0 µM and 14 µM.
On to `COCc1nc(-c2ccc3c(c2)CC[C@H]3NC(=O)c2cccc([C@H](C)O)c2)no1` [Compound 728, 3-((S)-1-hydroxyethyl)-N-((R)-5-(5-(methoxymethyl)-1,2,4-oxadiazol-3-yl)-2,3-dihydro-1H-inden-1-yl)benzamide], for which the “CDMF75 IC15” value is 0.8 µM and the IC50 turned out to be 3.8 µM.
With `Cc1cc(C(=O)N[C@@H]2COc3cc(-c4noc(C)n4)ccc32)n(C)n1` [Compound 156, (S)-1,3-dimethyl-N-(6-(5-methyl-1,2,4-oxadiazol-3-yl)-2,3-dihydrobenzofuran-3-yl)-1H-pyrazole-5-carboxamide], the “CDMF75 IC15” value stood at 1.1 µM and the IC50 is 4.7 µM.
Taken in the same sequence, the figures for `COC(=O)N[C@@H]1CCc2cc(-c3noc(C4CC4)n3)ccc21` [Compound 305, methyl (R)-(5-(5-cyclopropyl-1,2,4-oxadiazol-3-yl)-2,3-dihydro-1H-inden-1-yl)carbamate] were 0.3 µM and 1.2 µM.
For the compound `Cn1nnnc1C(=O)N[C@@H]1CCc2cc(-c3noc(C(F)F)n3)ccc21` [Compound 189, (R)-N-(5-(5-(difluoromethyl)-1,2,4-oxadiazol-3-yl)-2,3-dihydro-1H-inden-1-yl)-1-methyl-1H-tetrazole-5-carboxamide], the “CDMF75 IC15” value was 1.4 µM and the IC50 was found to be 5.1 µM.
Taken in the same sequence, the figures for `Cn1nnc(C(=O)N[C@@H]2CCc3cc(-c4nc(C(F)F)no4)ccc32)n1` [Compound 216, (R)-N-(5-(3-(difluoromethyl)-1,2,4-oxadiazol-5-yl)-2,3-dihydro-1H-inden-1-yl)-2-methyl-2H-tetrazole-5-carboxamide] were 1.3 µM and 4.9 µM.
With `O=C(N[C@@H]1CCc2cc(-c3noc(C(F)F)n3)ccc21)c1ccnc(C(F)F)c1` [Compound 685, (R)-2-(difluoromethyl)-N-(5-(5-(difluoromethyl)-1,2,4-oxadiazol-3-yl)-2,3-dihydro-1H-inden-1-yl)isonicotinamide], the “CDMF75 IC15” value turned out to be 0.7 µM and the IC50 was found to be 2.6 µM.
For the compound `Cn1nccc1C(=O)N[C@@H]1CCc2cc(-c3noc(C4CC4)n3)ccc21` [Compound 241, (R)-N-(5-(5-cyclopropyl-1,2,4-oxadiazol-3-yl)-2,3-dihydro-1H-inden-1-yl)-1-methyl-1H-pyrazole-5-carboxamide], the “CDMF75 IC15” value was determined as 0.2 µM and the IC50 turned out to be 0.8 µM.
Taken in the same sequence, the figures for `CCc1nc(-c2ccc3c(c2)CC[C@H]3NC(=O)c2ccc(C)cn2)no1` [Compound 642, (R)-N-(5-(5-ethyl-1,2,4-oxadiazol-3-yl)-2,3-dihydro-1H-inden-1-yl)-5-methylpicolinamide] were 1.4 µM and 5.8 µM.
